# Data reported in ChEMBL document CHEMBL6103613 (J Med Chem, 2025).
# Activity calls are given as the source filed them. The rule behind the calls is not given here.
# Tests used:
# Staphylococcus aureus [1] = assay: Upregulation of dltB expression in Staphylococcus aureus at 12.5 microg/ml incubated for 3 hrs by RNA sequencing analysis; type: functional; conditions: dose 12.5 µg/ml
# Staphylococcus aureus [2] = assay: Antimicrobial activity against Staphylococcus aureus ATCC 25923 incubated for 1 hr in presence of PGN; type: functional
# Staphylococcus aureus [3] = assay: Upregulation of superoxide dismutase expression in Staphylococcus aureus at 12.5 microg/ml incubated for 3 hrs by RNA sequencing analysis; type: functional; conditions: dose 12.5 µg/ml
# Staphylococcus aureus [4] = assay: Upregulation of thiol peroxidase expression in Staphylococcus aureus at 12.5 microg/ml incubated for 3 hrs by RNA sequencing analysis; type: functional, organism-based; conditions: dose 12.5 µg/ml
# [5] = Toxicity in mouse assessed as change in behavior at 50 mg/kg, ip measured for 7 days; type: organism-based; conditions: in vivo, 168 h, time 7 day
# [6] = Toxicity in mouse assessed as organ damage by measuring thickened alveolar wall in lungs at 5 mg/kg, ip measured upto 8 days; type: organism-based; conditions: in vivo, 192 h, time < 8 day
# [7] = Stability of compound in mouse serum measured after 24 hrs; type: ADME, cell-free
# Staphylococcus aureus [8] = assay: Antibacterial activity against methicillin-resistant Staphylococcus aureus infected in kunming mouse pneumonia model assessed as reduction in colony count in lung at 5 mg/kg, ip measured upto 8 days; type: functional, organism-based; conditions: time <= 8.0 day
# [9] = Toxicity in mouse assessed as kidney damage at 50 mg/kg, ip measured for 7 days by H and E staining based analysis; type: organism-based; conditions: in vivo, 168 h, time 7 day
# Staphylococcus aureus [10] = assay: Antibacterial activity against methicillin-resistant Staphylococcus aureus infected in kunming mouse peritonitis model assessed as reduction in bacterial colonies in kidney at 5 mg/kg, ip measured upto 8 days; type: functional, organism-based; conditions: time <= 8.0 day
# Enterococcus gallinarum = assay: Antimicrobial activity against Enterococcus gallinarum ATCC 49573 assessed as inhibition of visible bacterial growth incubated for 18 hrs by CLSI based analysis; type: functional
# Staphylococcus aureus [11] = assay: Antimicrobial activity against Staphylococcus aureus at pH 5.4 to 6.4 incubated for 0.5 hrs; type: functional, organism-based
# Staphylococcus aureus [12] = assay: Antimicrobial activity against methicillin-resistant Staphylococcus aureus clinical isolate 3 assessed as inhibition of visible bacterial growth incubated for 18 hrs by CLSI based analysis; type: functional
# Cell membrane [13] = assay: Disruption of cell membrane integrity in Staphylococcus aureus at 4 times of MIC incubated upto 20 mins by fluorescence microscopic analysis; type: subcellular
# [14] = Toxicity in mouse assessed as lung damage at 50 mg/kg, ip measured for 7 days by H and E staining based analysis; type: organism-based; conditions: in vivo, 168 h, time 7 day
# Staphylococcus aureus [15] = assay: Antimicrobial activity against Staphylococcus aureus incubated for 0.5 hrs in presence of Mg+; type: functional, organism-based
# [16] = Toxicity in mouse assessed as change in food intake at 50 mg/kg, ip measured for 7 days; type: organism-based; conditions: in vivo, 168 h, time 7 day
# Staphylococcus aureus [17] = assay: Antibacterial activity against methicillin-resistant Staphylococcus aureus infected in kunming mouse keratitis model measured upto 24 hrs; type: functional, organism-based
# Staphylococcus aureus [18] = assay: Upregulation of Mnh1 expression in Staphylococcus aureus at 12.5 microg/ml incubated for 3 hrs by RNA sequencing analysis; type: functional; conditions: dose 12.5 µg/ml
# [19] = tested on: Staphylococcus epidermidis; assay: Antimicrobial activity against Staphylococcus epidermidis ATCC 12228 assessed as inhibition of visible bacterial growth incubated for 18 hrs by CLSI based analysis; type: functional
# Peptidoglycan [20] = assay: Binding affinity to Staphylococcus aureus peptidoglycan assessed as change in entropy by ITC analysis
# Cell membrane [21] = assay: Disruption of cell membrane integrity in Staphylococcus aureus at 4 times of MIC incubated for 30 mins by Propidium iodide staining based analysis; type: subcellular
# [22] = Toxicity in mouse assessed as change in bowel movement intake at 50 mg/kg, ip measured for 7 days; type: organism-based; conditions: in vivo, 168 h, time 7 day
# Staphylococcus aureus [23] = assay: Upregulation of ahpF expression in Staphylococcus aureus at 12.5 microg/ml incubated for 3 hrs by RNA sequencing analysis; type: functional; conditions: dose 12.5 µg/ml
# Staphylococcus aureus [24] = assay: Antimicrobial activity against Staphylococcus aureus assessed as inhibition of visible bacterial growth incubated for 18 hrs by CLSI based analysis; type: functional
# Staphylococcus aureus [25] = assay: Upregulation of fmtA expression in Staphylococcus aureus at 12.5 microg/ml incubated for 3 hrs by RNA sequencing analysis; type: functional; conditions: dose 12.5 µg/ml
# Staphylococcus aureus [26] = assay: Antibacterial activity against methicillin-resistant Staphylococcus aureus infected in kunming mouse peritonitis model assessed as reduction in bacterial colonies in lung at 5 mg/kg, ip measured upto 8 days; type: functional, organism-based; conditions: time <= 8.0 day
# Staphylococcus aureus [27] = assay: Upregulation of catalase expression in Staphylococcus aureus at 12.5 microg/ml incubated for 3 hrs by RNA sequencing analysis; type: functional, organism-based; conditions: dose 12.5 µg/ml
# Staphylococcus aureus [28] = assay: Antimicrobial activity against Staphylococcus aureus incubated for 0.5 hrs in presence of Fe2+; type: functional, organism-based
# Staphylococcus aureus [29] = assay: Upregulation of ahpC6 expression in Staphylococcus aureus at 12.5 microg/ml incubated for 3 hrs by RNA sequencing analysis; type: functional; conditions: dose 12.5 µg/ml
# Staphylococcus aureus [30] = assay: Antibiofilm activity in Staphylococcus aureus assessed as biofilm eradication at 8 times MIC relative to control; type: functional
# Peptidoglycan [31] = assay: Binding affinity to Staphylococcus aureus peptidoglycan assessed as dissociation constant by ITC analysis
# Cell membrane [32] = assay: Induction of cell membrane depolarization in Staphylococcus aureus assessed as increase in fluorescence intensity at 1 to 8 times MIC by DiOC2 (3) dye based assay; type: subcellular
# [33] = Toxicity in mouse assessed as signs of drowsiness at 50 mg/kg, ip measured for 7 days; type: organism-based; conditions: in vivo, 168 h, time 7 day
compound,measurement,setting,value
CC(C)[C@@H]1NC(=O)[C@@H](C(C)C)NC(=O)[C@H](C(C)C)NC(=O)[C@@H](CCCCN)NC(=O)[C@H](Cc2c(C(c3ccccc3)(c3ccccc3)c3ccccc3)[nH]c3ccccc23)NC(=O)[C@@H](C(C)C)NC(=O)[C@@H]2CSC1N2,Activity,Staphylococcus aureus [1],Active
same,MIC,Staphylococcus aureus [2],> 50 µg/mL
same,Activity,Staphylococcus aureus [3],Active
same,Activity,Staphylococcus aureus [4],Active
same,Activity,[5],Non-toxic
same,Activity,[6],Non-toxic
same,Stability,[7],Stable
same,Activity,Staphylococcus aureus [8],Active
same,Activity,[9],Non-toxic
same,Activity,Staphylococcus aureus [10],Active
same,MIC,Enterococcus gallinarum,12.5 µg/mL
same,Activity,Staphylococcus aureus [11],Active
same,MIC,Staphylococcus aureus [12],12.5 µg/mL
same,Activity,Cell membrane [13],Active
same,Activity,[14],Non-toxic
same,Activity,Staphylococcus aureus [15],Active
same,Activity,[16],Non-toxic
same,Activity,Staphylococcus aureus [17],Active
same,Activity,Staphylococcus aureus [18],Active
same,MIC,[19],6.25 µg/mL
same,TdeltaS,Peptidoglycan [20],7.55 kcal/mol
same,Activity,Cell membrane [21],46.7%
same,Activity,[22],Non-toxic
same,Activity,Staphylococcus aureus [23],Active
same,MIC,Staphylococcus aureus [24],3.13 µg/mL
same,Activity,Staphylococcus aureus [25],Active
same,Activity,Staphylococcus aureus [26],Active
same,Activity,Staphylococcus aureus [27],Active
same,Activity,Staphylococcus aureus [28],Active
same,Activity,Staphylococcus aureus [29],Active
same,Activity,Staphylococcus aureus [30],90%
same,Kd,Peptidoglycan [31],615 nM
same,Activity,Cell membrane [32],Dose-dependent-effect
same,Activity,[33],Non-toxic
